The values below come from patent US5514648A, “Fungicidally active compounds” (priority 1990, dated 1996).

One data set concerns B. cinerea. As to the kind of experiment: Fungicidal activity, mycelial growth on potato dextrose agar. The class given is cell-based, Botrytis cinerea. The conditions noted are these: in as low concentrations as 0.0016 μg/ml, 3 to 6 days. As to the method: (§1) Experiments were carried out to determine the potency of the compound of formula IV towards various fungi. The active ingredient was dissolved in 60% ethanol and added to cooled potato dextrose agar to give final concentrations of 25, 5, 1, 0.2, 0.04 and 0.0016 μg a.i. per ml agar, respectively. Control dishes contained no active ingredient.
(§2) 10 ml Agar was poured into 9 cm petri dishes and each concentration was inoculated with actively growing mycelium of the fungal isolates tested for. The dishes were incubated at the optimum temperature for growth of the isolates for 3 to 6 days after which time the growth was measured in mm and compared to the controls.
(§3) The test isolates covered a broad range of fungi within the Oomycetes, the Ascomycetes, the Basidiornycetes, the Deuterornycetes, and the Zygomycetes.

For the next data set, the system named is Ascomycetous species. The data set is described as above. The class given is cell-based, Ascomycetes. The conditions noted are these: 25 to 0.0016 μg a.i. per ml agar. As to the method: as §1, §2, §3
The subject of data set [1] is Botrytis cinerea. As to the kind of experiment: Activity against Botrytis cinerea on apples (Golden Delicious). It counts as in vivo. The conditions noted are these: suspension 9.8 μg active ingredient per ml; inoculated the following day; one week, 18°-20° C.; untreated fruits 100% infected. The method, then:
Artificially injured apples were sprayed with a suspension containing 9.8 μg active ingredient per ml.On the following day the treated fruits were inoculated with a spore suspension of the fungus containing 1×10^5 /ml, and incubated for a week at high air humidity and 18°-20° C. At the evaluation the infected places of injury were counted and from that the fungicidal effect of the test substance evaluated. […] The untreated fruits were 100% infected with Botrytis cinerea.

The test system of another data set is P. digitatum. Kind of data set: Fungicidal activity, mycelial growth on potato dextrose agar. The conditions noted are these: in as low concentrations as 0.0016 μg/ml, 3 to 6 days. It counts as cell-based, Penicillium digitatum. As to the method: as §1, §2, §3
In the next data set the test system is A. fumigatus. Described as above. It counts as cell-based, Aspergillus fumigatus. The conditions noted are these: in as low concentrations as 0.0016 μg/ml, 3 to 6 days. The method, then: as §1, §2, §3
The next data set deals with P. sorghina. Described as above. The class given is cell-based, Phoma sorghina. The conditions noted are these: 25 to 0.0016 μg a.i. per ml agar, 3 to 6 days. The method, then: as §1, §2, §3
The subject of a further data set is Zygomycetous species. Described as above. The class given is cell-based, Zygomycetes. Conditions: 25 to 0.0016 μg a.i. per ml agar. As to the method: as §1, §2, §3
For data set [2], the system named is Botrytis cinerea. Kind of data set: Activity against Botrytis cinerea on tomato plants. It counts as in vivo. The conditions noted are these: liquid suspension 0.035 mg active ingredient per ml; inoculated after 24 hours; 6 days incubation; controls all overgrown. As to the method: Tomato plants (variety "First in Field", 3 weeks old) were treated with a liquid suspension containing 0.035 mg active ingredient per ml. The plants were kept 24 hours in a green house to dry before they were inoculated with a spore suspension containing 10^5 Botrytis cinerea spores per ml in 25% grapefruit juice. […] Control plants that were treated as above except for the application of the active ingredient in suspension were all overgrown with Botrytis cinerea.

For the next data set, the system named is Monilinia fructigena. As to the kind of experiment: Activity against Monilinia fructigena on apples (Golden Delicious). The class given is in vivo. The conditions noted are these: for number of infected wounds (maximum 20): 5 days, 0 mg ai/l gives 20. As to the method:
Apples were surface sterilized, each punctured 5 times with a nail 2.1 mm in diameter, dipped in suspensions containing 0, 0.5, 5, 50, and 500 mg a.i. per 1. The active ingredient was (i) BK 202, (ii) benomyI(BENLATE®), (iii) iprodione(ROVRAL®). Four apples were punctured and treated with each concentration of the three pesticides giving a total of 20 wounds per concentration. The fruits were placed in plastic containers in rows with the wounds facing upwards. After 24 hours, the wounded areas were sprayed with a suspension of Monilinia fructigena containing 1×10^5 spores per ml. The containers were then covered with polyethylene bags and kept at room temperature (approximately22° C.).
After 5 days the effects were assessed by counting the number of infected wounds (maximum 20 infected wounds per treatment).

The next data set has as its system plants. As to the kind of experiment: Phytotoxic activity on plants. Conditions: at the concentrations used in Examples 1 to 7. The class given is in vivo.
Data set [3] is described as follows: Toxicology IC50, Chemiluminescent. The conditions noted are these: estimated. The method, then: Based on these tests the IC50 values for BK 202 were estimated as: Chemiluminescent >10 μg/ml
Data set [4] concerns Botrytis cinerea. Kind of data set: Field trial, Botrytis cinerea on strawberries (Senga-Sengana). The class given is in vivo. Conditions: 100, 300, and 900 g a.i./ha, four sprayings. From the text: Field trial performed in Funen, Denmark, in accordance with the EPPO guidelines (Guideline for the Biological Evaluation of Fungicities. Botrytis cinerea on Strawberries). The plot size was 20 m^2 and three replicates were used. The active compound was used in a test formulation containing approximately 10% active ingredient (a.i.). Three concentrations of active compound were applied: 100, 300, and 900 g a.i./ha. The spraying volume was 1200 l/ha. The strawberries were sprayed at the following growth stages: T1, onset of flowering; T2 : 10% flowering; T3, 50% flowering; and T4, 80% flowering. The commercial fungicide ROVRAL® was used as standard reference. The assessment was performed by counting and weighing healthy and infected strawberries, respectively.

Another data set has as its system P. teres. Kind of data set: Fungicidal activity, mycelial growth on potato dextrose agar. The class given is cell-based, Pyrenophora teres. Conditions: in as low concentrations as 0.0016 μg/ml, 3 to 6 days. The method, then:
as §1, §2, §3

A further data set concerns Oornycetous species. The description is as above. It counts as cell-based, Oomycetes. The conditions noted are these: 25 to 0.0016 μg a.i. per ml agar. As to the method: as §1, §2, §3
The next data set can be described thus: Ames spot tests. The class given is cell-based. The conditions noted are these: crystalline compound. From the text:
The toxicity of BK 202 was investigated in the following tests using the compound of formula IV in crystaline form: […]
Ames spot tests and in vitro testing of dermal irritation (Skintex®).

Where a SMILES comes first, the peptide text is derived from it. [ ]: non-standard residue; d: D form. NMeI = CC[C@H](C)[C@H](NC)C(=O)O; NMeD = CN[C@@H](CC(=O)O)C(=O)O; NMeV = CN[C@H](C(=O)O)C(C)C; Pip = O=C(O)[C@@H]1CCCCN1; dLac = C[C@@H](O)C(=O)O Some results are limits rather than exact numbers.

In the case of `CC[C@H](C)[C@H]1C(=O)NCC(=O)N(C)[C@@H](C(C)C)C(=O)N[C@@H](Cc2ccc(OC)cc2)C(=O)O[C@H](C)C(=O)N2CCCC[C@H]2C(=O)N(C)[C@@H](C(C)C)C(=O)N[C@@H](C(C)C)C(=O)N(C)[C@@H](CC(=O)O)C(=O)N(C)[C@@H](C(C)C)C(=O)N1C` [BK 202, cyclo- Pec-MeVal-Val-MeAsp-MeVal-MeIle-Gly-MeVal-TyrOMe-D-Lact!] (cyclo(G[NMeV]Y(Me)[dLac][Pip][NMeV]V[NMeD][NMeV][NMeI])), the inhibition of growth entry is given as “very strong” in the data set on B. cinerea; “very strong” with P. digitatum; “very strong” with A. fumigatus; “weaker” with P. sorghina; “very strong” in the data set on P. teres. In addition, the fungicidal activity entry is recorded as “most active” in the data set with Ascomycetous species, “Only weak activity” in the data set on Zygomycetous species and “practically no activity” with Oornycetous species. In the data set on Botrytis cinerea [1], the “fungicidal effect on injured apples” value is “prevented the growth of fungus completely”. The “attack from the fungus on tomato plants” value in the data set on Botrytis cinerea [2] was “No attack from the fungus was observed”. Also, the “number of infected wounds (maximum 20)” value in the data set on Monilinia fructigena (0.5 mg ai/l dip) was determined as 18; in the data set with Monilinia fructigena (5.0 mg ai/l dip), 14; in the data set with Monilinia fructigena (50 mg ai/l dip), 7; with Monilinia fructigena (500 mg ai/l dip), 1. Besides, the “activity towards M. fructigena in comparison to the two commercial fungicides tested” value in the data set on Monilinia fructigena (versus BENLATE® and ROVRAL®) is listed as “superior”. The phytotoxic activity entry in the data set on plants is given as “no phytotoxic activity has been observed”. The “IC50, Chemiluminescent” value in data set [3] is above 10 µg/mL. Also, the “fungicidal effect (degree of infection, FIG. 8) compared to ROVRAL®” value with Botrytis cinerea [4] was “superior”. Further, in “Ames spot tests”, the Ames spot tests entry is recorded as “no indication of toxicity”.
